Values of other authors as cited in US20200315976A1, “Encapsulation Methods and Compositions” (Prodo Laboratories, Inc., priority 2017, published 2020).

Test system: islets

CCOC(=O)c1ccccc1-c1c2cc(Br)c(=O)c(Br)c-2oc2c(Br)c([O-])c(Br)cc12.[K+] [Ethyl eosin, ethyl eosin]
effect on islets during conformal encapsulation: islet death
